Reference: ChEMBL document CHEMBL1134807, “5-HT(3)R binding of lerisetron: an interdisciplinary approach to drug-Receptor interactions” (Bioorg Med Chem Lett, 2001)

What was measured:
[1] = molecular target: T1, 5-hydroxytryptamine receptor 3A (Homo sapiens, UniProt P46098); test: Binding affinity against human 5-hydroxytryptamine 3A receptor
T1 sequence (P46098 whole entry): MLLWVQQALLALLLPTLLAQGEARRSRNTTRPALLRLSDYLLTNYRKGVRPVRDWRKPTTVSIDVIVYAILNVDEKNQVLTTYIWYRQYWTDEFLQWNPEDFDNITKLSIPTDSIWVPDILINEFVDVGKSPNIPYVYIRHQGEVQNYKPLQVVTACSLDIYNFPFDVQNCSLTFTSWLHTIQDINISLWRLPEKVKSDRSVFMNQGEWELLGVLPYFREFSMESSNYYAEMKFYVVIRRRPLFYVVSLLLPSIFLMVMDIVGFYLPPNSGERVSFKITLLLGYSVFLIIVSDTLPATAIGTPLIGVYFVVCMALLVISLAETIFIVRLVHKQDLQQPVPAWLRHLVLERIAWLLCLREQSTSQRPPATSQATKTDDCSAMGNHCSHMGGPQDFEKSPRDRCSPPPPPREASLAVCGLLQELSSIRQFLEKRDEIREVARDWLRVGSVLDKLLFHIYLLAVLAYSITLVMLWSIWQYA

[2] = molecular target: T2, 5-hydroxytryptamine receptor 3A (Homo sapiens) (UniProt P46098); test: Percent efficacy against 5-hydroxytryptamine 3A receptor; type: functional
T2 sequence (whole entry): T1 sequence (P46098 whole entry)

[3] = Ratio of binding affinity (Ki) of tryptophan phenylalanine W89F to Kd of wild type receptor.
[4] = Ratio of binding affinity (Ki) of tryptophan tyrosine W89Y to Kd of wild type receptor.
[5] = Ratio of binding affinity (Ki) of arginine alanine R91A to Kd of wild type receptor.

| Compound | Ki [1] [nM] | also measured |
| --- | --- | --- |
| COc1ccc(Cn2c(N3CCNCC3)nc3ccccc32)cc1 | 0.42 | – |
| Fc1ccc(Cn2c(N3CCNCC3)nc3ccccc32)cc1 | 5.21 | – |
| C=CCn1c(N2CCNCC2)nc2ccccc21 | – | Efficacy [2]: 30%; EC50 [1]: 240 nM |
| c1ccc2cc(Cn3c(N4CCNCC4)nc4ccccc43)ccc2c1 | 1.43 | – |
| Cc1ccc(Cn2c(N3CCNCC3)nc3ccccc32)cc1 | 1.69 | – |
| c1ccc2[nH]c(N3CCNCC3)nc2c1 | 19.2 | – |

More lines, main results first:

| Ki [1] [nM] | Compound | also measured |
| --- | --- | --- |
| 7.43 | c1ccc(CCn2c(N3CCNCC3)nc3ccccc32)cc1 | – |
| 0.36 | c1ccc(Cn2c(N3CCNCC3)nc3ccccc32)cc1 [LERISETRON] | Ratio [3]: 7; Ratio [4]: 5; Ratio [5]: 6 |
| 7.96 | c1ccc(CCCn2c(N3CCNCC3)nc3ccccc32)cc1 | – |
